The test system of series [1] is human skin fibroblasts. Put plainly: Cell proliferation inhibition index (CPII) assay: direct contact assay. The note with it: 72 h.
Description: Cell proliferation inhibition index (CPII) assay: direct contact assay. […] Since each well has a surface area of 0.31 cm^2, the final seeding density was ca. 5×10^3 cells/cm^2. After 4 h (the cells were adherent to the well bottom), the culture medium was discarded and 200 μL of each test solution was added to each well. For the control culture, the medium was refreshed. Seventy-two hours after the addition of test solutions, the extracts were discarded and the cell layer was washed with PBS to remove remaining materials and loose cells. The metabolic activity of the cells was then measured with the MTT test (see below). The CPII was calculated using eq. 6: [formula]
To evaluate the CPII for dexT70-VA hydrogels (extracted for 3 days in water at 25° C. and then sterilized by autoclave), 3 mL of a fibroblast suspension containing 1.5×10^4 cells/mL was plated into each well of a 6-well plate, to yield a final density of 5×10^3 cells/cm^2. After 4 h, the culture medium was refreshed (3 mL) and the hydrogels were added to the wells, in direct contact with cells (FIG. 1A). For the control culture, the culture medium was refreshed. After 72 h of incubation, the metabolic activity of the cells was assessed as previously described and the CPII calculated according to eq.6.
Mitochondrial metabolic activity assay. […] The absorbance was measured at 540 nm using a plate reader (STL Spectra III, Austria).
In series [2] the test system is human skin fibroblasts. Kind of series: Extraction assay, mitochondrial metabolic activity (MTT). The settings on record: 24 h.
Description: Cell culture. Primary human skin fibroblasts were grown in DMEM complete medium, at 37° C. in a fully humidified air containing 5% CO2 (IR auto Flow). The cells were fed every 2 to 3 days. When cells reached confluence, the culture medium was discarded and the cells washed with 5 mL of 10 mM phosphate buffered saline (PBS) pH 7.4 (Gibco). The cells were then detached with 2 mL of 0.05% (w/v) trypsin (1:250, from porcine pancreas (Sigma)) solution (PBS supplemented with 0.1% and 0.25% of α-D(+) glucose and EDTA, respectively) for 5 min at 37° C., and 3 mL of DMEM complete medium was added to inactivate the trypsin after cell detachment. The cells were centrifuged (10 min, 2500 rpm) and resuspended in culture medium before use. Cultures between the 3rd and 7th passages were used in the entire work.
All solutions were prepared on the day of application.
Extraction assay. The extraction assay was performed in two sets of hydrogels. […] In the second set the hydrogels obtained after the polymerization reaction were immersed in 10 mL of 10 mM citrate-phosphate pH 7.0 and immediately autoclaved. Extracts were obtained by immersing autoclaved hydrogels in DMEM (without phenol red) culture medium supplemented with 1% of fungizone and 0.5% of gentamicin, at 37° C., for 5 days with agitation (120 rpm). The ratio between the surface area of the material and the volume of extraction medium was 3 cm^2/mL. Following incubation the medium containing the extract was collected, filtered (0.22 μm; to eliminate the possible presence of solid particles of the material) and supplemented with 10% of serum. Human skin fibroblasts were plated in 96-well plates (TPP, Switzerland) and grown to subconfluency. The culture medium was removed and replaced with the extract media for 24 h at 37° C. Phenol (64 g/L, BDH) which is considered cytotoxic^17, was used as a positive control. Culture medium without extracts, incubated as described above, was used as a negative control. Following incubation the extracts were discarded and the mitochondrial metabolic activity of the cells was measured with the MTT assay.
Mitochondrial metabolic activity assay. For 96-well plates, the cell layers were rinsed with PBS (110 μL) and 110 μL of MTT (0.45 mg/mL in DMEM complete medium w/o phenol red) was added to each well. For 6-well plates, after PBS washing (1 mL), 2.5 mL of MTT solution was added. After 3 h incubation at 37° C., the MTT solution was removed and the insoluble formazan crystals formed in the bottom of the wells were dissolved in 100 μL or 1 mL of DMSO, for 96 and 6-well plates respectively. The absorbance was measured at 540 nm using a plate reader (STL Spectra III, Austria).

As to `N.N.O=S(=O)(O)OOS(=O)(=O)O` [APS, ammonium persulfate], the CPII entry in series [1] (all concentrations) is “ca. 90%”. Moreover, in series [2] (concentrations above 2.5 μL/mL), the “effect on MMAF” value is on record as “significant (P<0.001) decrease in MMAF”.

For the compound `CN(C)CCN(C)C` [TEMED, N,N,N′,N′-tetramethylenediamine], in series [1] (above 2.5 μL/mL), the CPII entry is “the same phenomenon was observed”. Moreover, in series [2] (concentrations above 2.5 μL/mL), the “effect on MMAF” value is “significant (P<0.001) decrease in MMAF”.

For Dextran [reference compound], the “increase in the MMAF” value in series [2] (solution 10 mg/mL) is “ca. 20%”. Besides, in series [2] (solution 20-100 mg/mL), the “effect on MMAF” value is “not significant”.

The values above are taken from patent publication US20040137582A1, “Methods for manufacturing polysaccharide derivatives” (priority 2002, published 2004).
